In patent publication US9127027B2, “Epoxyeicosatrienoic acid analogs and methods of making and using the same” (The Medical College of Wisconsin, Inc., priority 2011, dated 2015):
Where two headings read alike, the source gives them in different places.

Experiments:
[1] = test system: bovine coronary artery; test: Vasorelaxant activity in bovine coronary artery rings precontracted with U-46619; assay type: cell-based; conditions: for Vascular Relax. % (10 μM): 100% relaxation = basal pre-U-46619 tension; for EC50: Bos taurus
Description: Vasorelaxant activity was measured in bovine coronary artery. Bovine hearts were obtained and the left anterior descending coronary artery was dissected and cleaned of connective tissue. Vessels of 1 mm diameter were cut into rings of 3 mm width as previously described (3, 27, 39). […] The vessels were suspended from a pair of stainless steel hooks in a 6-ml water-jacketed organ chamber. […] One hook was anchored to a steel rod and the other hook to a force transducer (model FT-03C; Grass Instruments, West Warwick, R.I.). Tension of the vessel was measured by an ETH-400 bridge amplifier, and the data were acquired with a MacLab 8e analog-to-digital converter and MacLab software version 3.5.6 (AD Instruments, Milford, Mass.) and stored on a Macintosh computer for subsequent data analysis.
Basal tension was set at the length-tension maximum of 3.5 g and equilibrated for 1.5 h. KCl (40 mM) was added to the chamber until reproducible maximal contractions were maintained. […] Cumulative additions of compounds were added to the chamber. Between concentration-response curves, the chambers were rinsed with fresh Krebs buffer, 40 mM KCl was administered to determine the maximum contraction, and the vessels were rinsed. Consecutive concentration-response curves were performed with 14,15-EET followed by a concentration-response curve to a compound. The experiment was always repeated with the order of the agonists reversed. […] The relaxation was plotted versus compound concentration and the EC50 determined utilizing statistical software.

[2] = test system: Spontaneously Hypertensive Rats (SHR); test: Telemetry blood pressure and heart rate in spontaneously hypertensive rats; assay type: in vivo, rat; conditions: for blood pressure after two weeks of treatment: 2 mg/d i.p. osmotic pump, vehicle 141±3.0; for heart rate: 2 mg/d i.p., vehicle 331±17.0
Source text: (§1) Telemetry Blood Pressure Measurement. To accurately detect changes in blood pressure and heart rate, telemetry transmitters (Data Sciences Inc., St. Paul, Minn.) were implanted in rats one week prior to the experimental period according to manufacturer's specifications while under pentobarbital anesthesia. In brief, an incision was made to expose the femoral artery that was occluded to allow insertion of the transmitter catheter. The catheter was secured in place with tissue glue and the transmitter body was sutured in place and the incision line was closed. Rats were allowed to recover from surgery and were returned to individual housing. A baseline arterial pressure was recorded for prior to the experimental period. Mean arterial pressure was continuously recorded throughout the experimental period.
Telemetry transmitters were implanted into male SHR as described. After the surgical recovery period, baseline mean arterial pressure was recorded. In this series of experiments, EET analogs were administered by osmotic pump (2 mg/d, i.p.) and blood pressure was continuously monitored.

[3] = test system: angiotensin II induced hypertensive rats; test: Angiotensin II hypertension: telemetry blood pressure, heart rate, sodium and protein excretion; assay type: in vivo, rat; conditions: Ang II hypertension; for blood pressure at end of two-week treatment: 2 mg/d i.p., vehicle 150±3.2; for heart rate: vehicle 396±25.0
Source text: as §1
Telemetry transmitters were implanted into male Sprague-Dawley rats (225-275 g) as described. After recording basal blood pressure, osmotic pumps were implanted (s.c.) to deliver angiotensin at a dose of 60 ng/min. EET analogs were administered by an osmotic pump (2 mg/d, i.p.) and blood pressure was continuously monitored.
Animals were placed in a metabolic cage and urine was collected in a conical tube. Samples were stored at −80° C. until assayed. Urinary protein excretion was assessed as an index for renal injury. Protein was determined by the Bradford colorimetric method and creatinine was determined by the picric acid colorimetric method.

[4] = molecular target: Human recombinant sEH (Homo sapiens (Human), UniProt P34913); test: Soluble epoxide hydrolase inhibition (PHOME fluorescent substrate); assay type: biochemical
Description: Compounds were tested for their ability to inhibit recombinant soluble epoxide hydrolase (sEH) protein. The assay utilizes (3-Phhenyl-oxiranyl)-acetic acid cyano-(6-methoxy-naphthalen-2-yl)-methyl ester (PHOME), a sensitive substrate for sEH that can be used to monitor the activity of both human and murine enzymes. […] Human recombinant sEH was incubated with substrate and compounds ranging in concentration from 0.1 to 1000 nM.

[5] = test system: Wistar-Kyoto (WKY) rats administered cisplatin; test: Cisplatin-induced nephrotoxicity in rats pretreated with EET analogs; assay type: in vivo, rat; conditions: for BUN: day 5 after cisplatin 7 mg/kg i.p., vehicle 241±51; for urinary NAG / plasma creatinine (PCr) / KIM-1 urinary excretion: day 5 after cisplatin; for urinary NAG: vehicle 3.0±0.6; for plasma creatinine (PCr): vehicle 3.1±0.2; for KIM-1 urinary excretion: vehicle 296±94; for cisplatin-induced proteinuria: vehicle 53±5; for reductions in renal mRNA expressions of inflammatory markers (TNF-α, IL-6, IL-1β) / reduction in elevated renal expressions of GRP78 and caspase 12 mRNAs: cisplatin-administered rats; for reduction in elevated renal expressions of GRP78 and caspase 12 mRNAs: vs vehicle treatment; for decrease in kidney expression of NOX1 and gp91phox mRNAs / reduction in urinary excretion of NAG and KIM-1 / reduction of cisplatin-induced proteinuria / reductions in elevated serum creatinine and BUN: vs vehicle-treated cisplatin rats
Source text: Experiments were approved and carried out according to the guidelines of the Institutional Animal Care and Use Committee, Medical College of Wisconsin, Milwaukee, USA. Male Wistar-Kyoto (WKY) rats weighing 180-200 g (Charles River, Mass., USA). All animals were kept in a temperature-controlled environment with a 12-h light/dark cycle and were allowed free access to food and water at all times. An acclimatization period of 6 days was allowed for the rats before experimentation. The rats were assigned into four groups. Group 1 (WKY, n=5-7): Rats received drinking water ad libitum for seven days and on day 7 DMSO (Sigma Aldrich, St. Louis, Mo., USA) was administered (300-500 μl i.p). […] Group 2 (CP+Vehicle, n=5-7): Rats were pretreated with vehicle (0.05% ethanol and 0.1% PEG-400 v/v) in drinking water for seven days and then on day 7 CP was administered (7 mg/kg i.p.) followed by another five days treatment with vehicle. Group 3 (CP+EET-A, n=5-7): These rats are pretreated with the EET analog EET-A (10 mg/kg/day p.o.) for seven days in drinking water and then on day 7 administered CP as a single injection (7 mg/kg i.p.) followed by another five days treatment with EET-A. Group 4 (CP+EET-B, n=5-7): Rats of this group are pretreated with another EET analog EET-B (10 mg/kg/day) for 7 days in drinking water and then on day 7 CP was administered as a single injection (7 mg/kg i.p.) followed by another five days treatment with EET-B. Rats of groups 2, 3 and 4 had free access to vehicle, EET-A and -B in drinking water, respectively. One day before the rats were sacrificed, urine of each rat was collected over a 24-h period, and the volume was measured. Five days after CP or DMSO administration, rats were anesthetized for blood sample collection followed by euthanasia and tissue collection. Urine and plasma samples were kept frozen at −80° C. until analyzed. The kidneys were removed, washed with physiological saline and stored at −80° C. until used for RT-PCR analysis, thiobarbituric acid reactive substance (TBARS) measurement and caspase 3 activity assay. A part of the kidney also preserved in 10% buffered formalin for histological examination.
The levels of blood urea nitrogen (BUN) (BioAssay Systems, Hayward, Calif., USA) and serum creatinine (Cayman Chemical Company, Ann Arbor, Mich., USA) were measured spectrophotometrically using commercial kits. Urinary content of creatinine and protein were measured using commercial kits (Cayman Chemical Company, Ann Arbor, Mich., USA), and the activity of urinary N-acetyl-b-glucosaminidase (NAG) in the urine was measured by a kit from Diazyme (Diazyme Laboratories, Poway, Calif., USA). While urine content of kidney injury molecule-1 (KIM-1) was measured using ELISA (R&D Systems, Inc. Minneapolis, Minn., USA).
Malondialdehyde (MDA) is a thiobarbituric acid reactive substance (TBARS) that is formed as an end-product of lipid peroxidation and serves as an important index of oxidative stress. To determine the kidney MDA level, the rat kidney was homogenized with buffer containing 1.5% potassium chloride to obtain a 1:10 (w/v) whole kidney homogenate. Using a commercially available kit (Cayman Chemical Company, Ann Arbor, Mich., USA), MDA was measured spectrophotometrically after reaction with thiobarbituric acid. […]
Real-Time analysis was carried out to assess the expression of oxidative (gp91phox, NOX1, SOD1, SOD2, SOD3), inflammatory (TNF-α, IL-6, IL-1β), apoptotic (Bax, Bak, Bcl-2) and endoplasmic reticulum stress (GRP78, caspase 12) related genes in the kidney. Total RNA was isolated from kidney homogenate using TRIzol LS reagents (Invitrogen Life Technologies, Carlsbad, Calif., USA) according to the manufacturer's instructions. The isolated RNA was treated with RNase-free DNase (Invitrogen, Carlsbad, Calif., USA) to remove traces of genomic DNA contamination. […]

[6] = Table 2, read-out: Vascular relaxation EC50
[7] = bovine coronary artery, read-out: Vascular Relax. EC50
[8] = Table 1 head prints μM (Table 2 prints nM for same numbers), read-out: sEHi IC50
[9] = Table 2, read-out: SEHi activity IC50

Chain of Human recombinant sEH (P34913 whole entry): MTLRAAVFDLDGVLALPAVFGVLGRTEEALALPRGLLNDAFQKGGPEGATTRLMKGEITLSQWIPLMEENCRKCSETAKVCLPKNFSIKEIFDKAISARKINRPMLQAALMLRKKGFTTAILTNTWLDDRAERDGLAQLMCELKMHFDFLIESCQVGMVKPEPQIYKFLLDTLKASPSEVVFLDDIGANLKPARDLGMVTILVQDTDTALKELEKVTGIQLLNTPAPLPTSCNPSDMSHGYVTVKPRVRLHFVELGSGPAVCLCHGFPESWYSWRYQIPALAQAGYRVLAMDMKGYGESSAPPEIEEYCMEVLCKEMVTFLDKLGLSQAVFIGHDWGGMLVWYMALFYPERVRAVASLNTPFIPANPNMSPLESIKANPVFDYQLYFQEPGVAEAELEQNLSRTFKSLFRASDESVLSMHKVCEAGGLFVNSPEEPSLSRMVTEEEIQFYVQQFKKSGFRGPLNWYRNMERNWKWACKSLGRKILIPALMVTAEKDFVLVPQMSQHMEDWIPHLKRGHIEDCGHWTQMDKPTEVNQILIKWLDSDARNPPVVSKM

Row | Structure (SMILES) | Vascular Relax. % (10 μM) [1] | Vascular relaxation % relaxation (10 μM) ([1]; Table 2) | EC50 [1, 6] | EC50 [1, 7] | blood pressure after two weeks of treatment [2] | heart rate [2] | blood pressure at end of two-week treatment [3] | heart rate ([3]; two weeks) | IC50 [4, 8] | IC50 [4, 9] | BUN ([5]; 10 mg/kg/d p.o.) | urinary NAG ([5]; 10 mg/kg/d p.o.) | plasma creatinine (PCr) ([5]; 10 mg/kg/d p.o.) | KIM-1 urinary excretion ([5]; 10 mg/kg/d p.o.) | cisplatin-induced proteinuria ([5]; 10 mg/kg/d p.o.) | reductions in renal mRNA expressions of inflammatory markers (TNF-α, IL-6, IL-1β) [5] | reduction in elevated renal expressions of GRP78 and caspase 12 mRNAs [5] | decrease in kidney expression of NOX1 and gp91phox mRNAs [5] | reduction in urinary excretion of NAG and KIM-1 [5] | reduction of cisplatin-induced proteinuria [5] | also measured
1 | CCCCCNC(=O)NCCCC/C=C\CCCCCCC(=O)N[C@@H](CC(=O)O)C(=O)O (stereo in doubt) [Compound 7, (S)-2-(13-(3-n-Pentylureido)tridec-8(Z)-enamido)succinic acid] | 91% | 91% | 1600 nM | 1600 nM | 131±2.0 mmHg | 316±23.0 BPM | 135±5.0 mmHg | 410±25.0 BPM |  |  |  |  |  |  |  |  |  |  |  |  | 
2 | CCCCCNC(=O)NCCCC/C=C\CCCCCCc1nnn[nH]1 [Compound 20] | 119% | 119% | 180 nM | 180 nM | 137±1.0 mmHg |  |  |  | 0.011 µM | 0.011 µM |  |  |  |  |  |  |  |  |  |  | 
3 | CCCCCCC(=O)N(CCCC/C=C\CCCCCCC1=NOS(=O)N1)C(C)C (stereo not drawn) [Compound 26] | 109% | 109% | 320 nM | 320 nM | 150±5.0 mmHg | 344±23.0 BPM |  |  | > 0.5 µM | > 0.5 µM |  |  |  |  |  |  |  |  |  |  | 
4 | CCCCCCC(=O)N(CCCCCOc1cccc2sc(NC(C)=O)nc12)C(C)C [Compound 30, N-(5-(2-Acetamidobenzo[d]thiazol-4-yloxy)pentyl)-N-isopropylheptanamide] | 96% | 96% |  |  | 129±2.0 mmHg | 318±24.0 BPM | 107±2.0 mmHg | 385±16.0 BPM |  |  |  |  |  |  |  |  |  |  |  |  | decrease in blood pressure compared to vehicle ([2]; two weeks treatment): 12 mmHg; sodium excretion (natriuresis) ([3]; two weeks, vehicle 1.9±0.7): 2.7 ± 0.3 mmol/day
5 | CCCCCNC(=O)NCCCC/C=C\CCCCCCC(=O)NC(CC(=O)[O-])C(=O)[O-].[Na+].[Na+] [EET-A, Sodium (S)-2-(13-(3-pentylureido)tridec-8(Z)-enamido)succinate] |  |  |  |  |  |  |  |  |  |  | 108 ± 30 mg/dL | 0.5±0.1 U/d | 2.0 ± 0.2 mg/dL | 85 ± 29 ng/day | 33 ± 8 mg/day | 40-60% | 2-4 fold | 2-3 folds | 30-50% | ≥ 40% | kidney TBARS formation ([5]; 10 mg/kg/d p.o., after cisplatin, vehicle 16±2): 7 ± 1 µmol/g; reductions in elevated serum creatinine and BUN [5]: 30-50%
6 | CCCCCCC(=O)N(CCCCCOc1cccc2sc(NC(=O)C(C)(C)C)nc12)C(C)C [EET-B, N-Isopropyl-N-(5-(2-pivalamidobenzo[d]thiazol-4-yloxy)pentyl)heptanamide] |  |  |  |  |  |  |  |  |  |  | 120 ± 33 mg/dL | 0.6±0.2 U/d | 1.4 ± 0.2 mg/dL | 57 ± 13 ng/day | 32 ± 3 mg/day | 40-60% | 2-4 fold | 2-3 folds | 30-50% | ≥ 40% | reductions in elevated serum creatinine and BUN [5]: 30-50%
